Measurements taken from patent US20220259164A1, “USE OF AMINOTHIOL COMPOUNDS AS CEREBRAL NERVE OR HEART PROTECTIVE AGENT” (SHANGHAI KECHOW PHARMA, INC., priority 2019, published 2022).
Where a SMILES comes first, the peptide text is derived from it. [ ]: non-standard residue; d: D form. NMeC = CN[C@@H](CS)C(=O)O

Columns and labels:
[1] = system: bleomycin (BLM)-induced scleroderma mouse model; test: H2O2 level in skin lesion, BLM-induced scleroderma mouse model; format: in vivo, mice; settings: compound A (hydrochloride) 600 mg/kg/d by gavage or compound B (trifluoroacetate) 200 mg/kg/d i.p., 28 days with BLM
From the text: Materials: C57BL/6 female mice, weighing 20-25 g, were purchased from Shanghai SLAC Laboratory Animal Co., Ltd. Using a random number table method, 24 mice were divided into a blank control group (1), a scleroderma model group (2), a scleroderma+compound A treatment group (3), and a scleroderma+compound B treatment group (4), with 6 mice in each group. Bleomycin (BLM) was purchased from Sigma. An H-E staining kit was purchased from Beijing Solarbio Science & Technology Co., Ltd. Compound A used in this example was in the form of a hydrochloride thereof, and compound B was in the form of a trifluoroacetate thereof.
Method: The intended injection site (area 1 cm^2) of the mice was shaved using an electric shaver. […] Conventional iodine tincture was used to disinfect the back skin of the mice, and a local diseased skin tissue was surgically cut, fixed in 4% paraformaldehyde, embedded in paraffin, sectioned, and analyzed by H-E staining. […]
Method: Part of the skin lesion tissue of the mice was taken, and the contents of hydroxyproline and hydrogen peroxide in the skin lesion region were detected according to the requirements in the kit instructions.

[2] = Body weight of cisplatin-induced SD rats; format: in vivo, rat; settings: 30 min prior to cisplatin 5 mg/kg i.p.: compound B 200 mg/kg i.p., compound A 800 mg/kg p.o., amifostine 200 mg/kg i.p.; weighed daily
Protocol: Healthy male SPF grade SD rats (body weight 250-300 g) were selected. Cisplatin+compound B group: 5 mg/kg i.p.+compound B at 200 mg/kg i.p., with compound B being administered 30 min prior to cisplatin administration Cisplatin+amifostine group: 5 mg/kg i.p.+AMI at 200 mg/kg i.p., with AMI being administered 30 min prior to cisplatin administration Cisplatin+compound A group: 5 mg/kg i.p.+compound A at 800 mg/kg p.o., with compound A being administered 30 min prior to cisplatin administration (1) The SD rats used in the experiment were weighed, labeled, and evenly divided into 5 groups, with 3 SD rats in each group. (2) The compound B, compound A, and AMI groups were respectively administered at the planned concentrations. […] (3) The rats were weighed and recorded daily, and on day 5, blood was taken from the intraocular canthus of the SD rats and placed in an anticoagulant tube.

[3] = system: rat myocardial infarction model (coronary ligation 30 min, reperfusion); test: Myocardial infarction model: myocardial infarction range (TTC staining); format: in vivo; settings: for Infarction range (%): x ± s, n = 10; for Improvement rate (%) of myocardial infarction range: compared with model group
Protocol: 1. The rats were grouped and administered according to the following methods (2) Compound B (i.v.) at 100 mg/kg (3) Compound A (i.v.) at 100 mg/kg (4) Compound A (oral) at 500 mg/kg (5) Isosorbide mononitrate injection (i.v.) at 1 mg/kg (equivalent to clinical equivalent dose). There were 10 rats in each group, and the rats were administered intravenously immediately after 30 min of ischemia and reperfusion, i.v. 10% 1 min+i.v. drip 90% 30 min. The administration volume was 2 ml/rat. Compound A (oral) at 500 mg/kg was administered intragastrically 2 h after reperfusion when the animal was awake, and the administration volume was 10 ml/kg. Note: Compounds A and B used in this example were in the form of hydrochloride salts thereof. Given intraperitoneal injection of 3% sodium pentobarbital at 60 mg/kg for general anesthesia, the rats were fixed on an operating table in the supine position. The surgical field of the anterolateral chest was depilated and routinely disinfected. The skin and muscular layer were cut open, purse-string suture was performed on the muscular layer, the chest was opened on the left at the fourth intercostal space, and the heart was pulled out with a ring-shaped retractor. At the position of the anterior descending coronary artery 3-4 mm below the left atrial appendage, a 6/0 damage-free silk thread was threaded, and a nylon thread with a diameter of 1.6 mm was juxtaposed and ligated together with the anterior descending coronary artery, while the other end was left outside the body for later use. The heart was placed back into the chest cavity, the air in the chest cavity was emptied, and the chest cavity was closed. 30 min after ligation, the nylon thread was carefully removed for reperfusion. Compared with the normal lead II electrocardiogram (ECG-II), ST segment elevation in ECG-II by 0.1 mV or more 30 min after coronary artery ligation was regarded as successful ischemia.

[4] = system: radiation intestinal injury in C57 male mice; test: Protective effect on radiation intestinal injury (HE staining of small intestine); format: in vivo; settings: 517 mpk i.p. 30 min before 16 Gy abdominal irradiation; fifth day
Protocol: (§1) C57 male mice were randomly divided into 4 groups, namely a blank control group, an irradiation group, a compound B (TFA) irradiation group, and an AMI irradiation group, respectively. The mode of administration for each group was an intraperitoneal injection, 30 min before irradiation. The dosage of administration was 517 mpk, and the abdominal irradiation dose was 16 Gy. On the fifth day, the small intestine tissue was taken for HE staining.

[5] = system: radiation lung injury in C57 male mice; test: Protective effect on radiation lung injury (HE staining of lung); format: in vivo; settings: 517 mpk i.p. 30 min before 17 Gy right lung irradiation; months 2, 4, 6
Protocol: as §1, with “the” for “the abdominal”, “dose to the right lung” for “dose”, “17” for “16”, “[…] Lung tissues were taken at months 2, 4, and 6 for HE staining” for “staining.”

[6] = system: radiation-induced hematopoietic system injury in C57 male mice; test: Protective effect on radiation-induced hematopoietic system injury (peripheral blood indicators); format: in vivo; settings: 517 mpk i.p. 30 min before 4 Gy whole body irradiation; day 15
Protocol: C57 male mice were randomly divided into 6 groups, namely a blank control group, an irradiation group, a compound B (TFA) group, an AMI group, a compound B (TFA) irradiation group, and an AMI irradiation group, respectively. The mode of administration for each group was an intraperitoneal injection, 30 min before irradiation. The dosage of administration was 517 mpk, and the whole body irradiation dose was 4 Gy. On day 15, samples were taken for detecting peripheral blood indicators.

SMILES | Concentration of H2O2 in the skin [1] | Change in body weight of cisplatin-induced SD rats [2] | Infarction range (%) ([3]; compound A (hydrochloride) i.v. 100 mg/kg after 30 min ischemia and reperfusion) | Improvement rate (%) of myocardial infarction range ([3]; compound A (hydrochloride) i.v. 100 mg/kg) | Infarction range (%) ([3]; compound A (hydrochloride) oral 500 mg/kg 2 h after reperfusion) | Improvement rate (%) of myocardial infarction range ([3]; compound A (hydrochloride) oral 500 mg/kg) | Changes in the intestinal villi structure (HE staining) [4] | Infarction range (%) ([3]; compound B (hydrochloride) i.v. 100 mg/kg after 30 min ischemia and reperfusion) | Improvement rate (%) of myocardial infarction range ([3]; compound B (hydrochloride) i.v. 100 mg/kg) | Inflammatory cell infiltration / radiation pneumonitis in lung (HE staining) [5] | LY % and NE % in the peripheral blood (abnormal differentiation) [6] | Numbers of WBC, RBC and PLT in the peripheral blood [6]
CNC(=O)[C@H](CS)NC(=O)[C@H](CS)NC [Compound A, (R)-3-mercapto-N—((R)-3-mercapto-1-(methylamino)-1-oxoprop-2-yl)-2-(methylamino)propionamide] (H-[NMeC]-Cys-NHMe) | reduced | the degree of decrease was significantly better than that of the cisplatin group | 30.5 ± 11 % | 24.5% | 28.9 ± 12.2 % | 28.5% |  |  |  |  |  | 
CNC(=O)[C@H](CS)NC(=O)[C@H](CS)NC(=O)[C@H](CS)NC [Compound B, (R)-3-mercapto-N—((R)-3-mercapto-1-(((R)-3-mercapto-1-(methylamino)-1-oxoprop-2-yl)amino)-1-oxoprop-2-yl)-2-(methylamino)propionamide] (H-[NMeC]-Cys-Cys-NHMe) | reduced | the body weight increased rather than decrease |  |  |  |  | milder than that in the irradiation group | 30.2 ± 8.2 % | 25.2% | could partially relieve the inflammatory cell infiltration and reduce the occurrence of radiation pneumonitis | could alleviate this abnormal differentiation | could increase the numbers of such cells after irradiation
